Source: patent US20180045715A1, “STRUCTURE AND FUNCTION OF THE SALICYCLIC ACID BINDING SITES ON HUMAN HMGB1 AND METHODS OF USE THEREOF FOR THE RATIONAL DESIGN OF BOTH SALICYCLIC ACID DERIVATIVES AND OTHER AGENTS THAT ALTER ANIMAL AND PLANT HMGBS ACTIVITIES” (Boyce Thompson Institute for Plant Research, Inc., priority 2015, published 2018)
Numbering of substitutions follows the chain as printed. Where two headings read alike, the source gives them in different places.

Tests used:
[1] = target: T1, HMGB1^RE (Homo sapiens, UniProt P09429); assay: Chemotaxis assay (Boyden chambers): HMGB1^RE-elicited migration of mouse 3T3 fibroblasts; type: cell-based
T1 construct: (i) full length: residues 2-215; 6x His (cleaved yes); made in house; host or cells: Escherichia coli BL21
T1 sequence (P09429 2-215): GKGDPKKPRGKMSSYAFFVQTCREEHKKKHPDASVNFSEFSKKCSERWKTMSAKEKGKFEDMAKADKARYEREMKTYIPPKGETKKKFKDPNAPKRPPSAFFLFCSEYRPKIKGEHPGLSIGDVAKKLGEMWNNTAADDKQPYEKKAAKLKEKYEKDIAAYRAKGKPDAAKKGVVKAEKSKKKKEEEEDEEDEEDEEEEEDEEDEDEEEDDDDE
Method: (§1) Cell migration was assayed using Boyden chambers (Venereau et al., 2012). The downside of PVP-free polycarbonate filters (8 μm pores; Millipore) was coated with 50 μg/ml fibronectin (Sigma). Serum-free DMEM (negative control), DMEM containing 0.1 nM fMLP (positive control; Sigma), or DMEM containing 1 nM HMGB1^RE or HMGB1^SS were placed in the lower chamber, together with different concentrations of SA (Sigma). The mouse 3T3 fibroblast cells were cultured in DMEM media supplemented with 10% CS until 90% confluence, washed twice with PBS to eliminate any floating cells, and harvested with trypsin. 50,000 cells in 200 μL were added to the upper chamber, and cells were left to migrate for 3 h at 37° C. Non-migrating cells were removed with a cotton swab, and migrated cells were fixed with ethanol and stained with Giemsa.
(§2) HMGB1^RE acts as a chemo-attractant that mediates migration of several cell types, including monocytes, fibroblasts, mesoangioblasts, smooth muscle cells, and colon cancer cells (Venereau et al., 2012). To determine whether SA alters HMGB 1's chemo-attractant activity, a chemotaxis assay was performed with mouse 3T3 fibroblasts.

[2] = test system: HMGB1^RE; assay: as above; type: cell-based; conditions: chemo-attractant and cytokine-inducing activities vs literature COX-2 inhibition
Method: as §1, §2

[3] = target: T2, full-length HMGB1 (Homo sapiens, UniProt P09429); assay: Saturation transfer difference (STD) NMR; type: binding
T2 construct: (i) full length: residues 2-215; hexaHis (TEV-cleavable) (N, cleaved yes); made in house
T2 sequence (P09429 2-215): T1 sequence (P09429 2-215)
From the text: (§3) NMR can be used to detect protein ligand interactions either by protein-detected experiments (Lepre, Moore et al. 2004), detecting changes in the frequencies of resonances of the protein sample due to ligand binding (protein-detected chemical shift perturbation (CSP) experiments), or by ligand-detected experiments (Lepre, Moore et al. 2004), in which NMR properties of the ligands due to ligand-protein interactions are detected. Protein-detected ligand binding experiments are usually done using isotope-enriched protein samples which can be studied by isotope-filtered NMR experiments, including for example ^15N-^1H-HSQC (Kay, Keifer et al. 1992). Ligand-detected experiments include the Waterlogsy experiment (Meyer and Peters 2003, Lepre, Moore et al. 2004, Furihata, Shimotakahara et al. 2008), which detects interactions in the ternary complex formed by the protein, the ligand, and one or more water molecules, and the Saturation Transfer Difference (STD) NMR experiments (Mayer and Meyer 2001, Lepre, Moore et al. 2004, Wang, Liu et al. 2004), which detects magnetization transfer from the protein to the ligand in the protein-ligand complex. The Waterlogsy experiment is a more sensitive experiment, typically employed to detect qualitatively if there is an interaction between protein and ligand. […]

[4] = target: T3, CXCL12 (Homo sapiens, UniProt P48061); assay: WaterLOGSY NMR with CXCL12; type: binding; conditions: 6 mM SA or 5 mM ac3AESA, 20 μM protein
T3 construct: full-length disulfide-intact CXCL12
From the text: as §3

[5] = target: T4, HMGB1-CXCL12 Complex (Homo sapiens, UniProt P09429, DEL90-93); assay: WaterLOGSY NMR with HMGB1/CXCL12 complex; type: binding; conditions: 6 mM SA or 5 mM ac3AESA, 20 μM complex
T4 construct: (i) full length: residues 2-215; full-length disulfide-intact CXCL12; hexaHis (TEV-cleavable) (N, cleaved yes)
T4 sequence (P09429 2-215 limits assumed): T1 sequence (P09429 2-215)
From the text: as §3

[6] = target: T5, HMGB1 (Homo sapiens, UniProt P09429); assay: Photoaffinity labeling of HMGB1 with 4AzSA, competition by SA; type: binding; conditions: 0.1 mM 4AzSA, increasing concentrations of SA
T5 construct: (i) full length: residues 2-215; 6x His (cleaved yes); made in house; host or cells: Escherichia coli BL21
T5 sequence (P09429 2-215): T1 sequence (P09429 2-215)
Method: HMGB1's SA-binding activity was then assessed using photoaffinity-crosslinking. Recombinant HMGB1 was pre-incubated with or without photoreactive 4-azido SA (4AzSA) before exposure to UV irradiation (FIG. 1B).

[7] = target: T6, mutant (R24A/K28A) HMGB1^RE (Homo sapiens, UniProt P09429, K28A/R24A); assay: Chemotaxis assay with mutant R24A/K28A HMGB1^RE; type: cell-based; conditions: NIH/3T3 fibroblasts
T6 construct: (i) full length: residues 2-215; made in house
T6 sequence (P09429 2-215 R24A/K28A): T1 sequence (P09429 2-215) with R23A, K27A
Method: as §1
An alternative explanation is that SA, at low concentrations, affects another factor in vivo, which results indirectly in suppression of HMGB1^RE-induced chemotaxis. […] Therefore, these residues were mutated to Ala to form the double mutant Arg24Ala/Lys28Ala (R24A/K28A).

[8] = after intake of 500 mg of aspirin; cited from earlier work
[9] = target: T7, AtHMGB3 (Arabidopsis thaliana, UniProt P93047); assay: Photoaffinity labeling of AtHMGB3 with 4AzSA, competition by SA; conditions: 50 μM 4AzSA, increasing concentrations of SA
T7 sequence (P93047 1-141): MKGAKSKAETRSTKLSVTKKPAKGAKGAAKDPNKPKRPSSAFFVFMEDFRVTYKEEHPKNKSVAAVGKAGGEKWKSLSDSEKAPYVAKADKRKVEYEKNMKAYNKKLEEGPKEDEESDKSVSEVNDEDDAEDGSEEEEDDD

T3 sequence (P48061 22-89 limits assumed, species assumed): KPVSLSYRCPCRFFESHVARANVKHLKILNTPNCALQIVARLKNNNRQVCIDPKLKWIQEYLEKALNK

## O=C(O)c1ccccc1O [SA, salicylic acid]
[1]; mouse 3T3 fibroblasts, 1 nM HMGB1^RE, read-out: IC50, inhibition of HMGB1^RE-elicited migration of fibroblasts
  IC50: 3 to 4 µM
[1]; read-out: IC50, inhibition of HMGB1^RE-induced chemotaxis
  IC50: 3.26 to 4.34 µM
[2]
  concentration inhibiting HMGB1 bioactivities, fold below that required to inhibit COX-2's enzyme activity: 10-50 fold
[3]; 20 μM HMGB1, pH 7.4, SA 6 mM, ac3AESA 0.6-5.8 mM
  STD signal for binding to full-length HMGB1: no STD signal is detected
[3]; 20 μM HMGB1, SA tested as high as 6 mM
  ligand concentration at which an STD effect for HMGB1 binding is seen: no STD effect
[4]
  WaterLOGSY binding to CXCL12: binds
[5]
  WaterLOGSY binding to complex formed between CXCL12 and HMGB1: binds
[6]
  inhibition of crosslinking of 4AzSA to HMGB1: effectively inhibited crosslinking
[7]
  inhibition of R24A/K28A HMGB1^RE's chemo-attractant activity: not inhibited
[8]
  time to reach the stated SA plasma concentration: ≤ 1 h
[9]
  inhibition of crosslinking of 4AzSA to AtHMGB3: effectively inhibited
